# Experimental data reported in patent publication US20260062422A1 (Halda Therapeutics OpCo, Inc., priority 2022, published 2026).
# System: T47D cells
# Assay: Cellular growth inhibition assay for T47D cells, CellTiter-Glo
# Assay type: cell-based, human
# Conditions: 72 hours treatment, CellTiter-Glo 2.0 cell viability
# Procedure: T47D cells were purchased from American Type Cell Culture (ATCC Cat #HTB-133) and then seeded on poly-D-lysine coated, black clear-bottom 384-well plates at 3000/well in 25 μL Dulbecco's Modified Eagle Medium (DMEM) supplemented with 10% w/w Fetal bovine serum (FBS), 0.2 units/mL recombinant human insulin (Gibco Cat #12585014), and 1% w/w Pen-Strep. Pen-Strep is a commercially available mixture of penicillin G and streptomycin, which is used in mammalian cell culture media to prevent bacterial contamination. Dulbecco's Modified Eagle Medium (DMEM) supplemented with 10% w/w fetal bovine serum (FBS), 0.2 units/mL recombinant human insulin, and 1% w/w Pen-Strep is herein referred to as Treatment Medium. Following seeding of cells in the plates, the plates were spun at 300×g for 30 seconds, then equilibrated to room temperature for 30 minutes, and then deposited in a humidified tissue culture incubator maintained at 37° C. with 5% CO2.
# At 24 hours after seeding of the cells, dilutions of test compound were prepared in DMSO and dissolved in Treatment Medium, to achieve a final DMSO concentration of 0.5% w/w, thereby providing the Test Compound Solution. A 25 μL aliquot of the Test Compound Solution was added to cells in the well plates. An equal volume of a solution containing DMSO and Treatment Medium was used as a negative control. Following treatment of cells with Test Compound Solution or said equal volume of a solution containing DMSO and Treatment Medium, the plates were spun at 300×g for 30 seconds, and then left in an incubator for 72 hours.
# At the end of the treatment duration, cell viability was quantified with CellTiter-Glo 2.0 reagent (Promega Cat #G9243). For this purpose, plates were equilibrated to room temperature for 30 minutes, and then 25 μL of CellTiter-Glo 2.0 reagent was added to cells in the plate wells. Plates were then agitated on a shaker for two minutes at 500 rpm and subsequently incubated at room temperature for 10 minutes. Following incubation, the plates were spun at 3000×g for 30 seconds, then sealed with an optical adhesive cover, and luminescence readings were measured with an EnVision Plate Reader (Perkin Elmer).
# Data was normalized using zero luminescence for baseline. A four-parameter non-linear regression curve fit was applied to dose-response data in GraphPad Prism data analysis software to determine the half-maximal growth inhibitory concentration (GI50) for each test compound.
row,GI50,SMILES
1,500 to 1500 nM,Cc1sc2c(c1C)C(c1ccc(C3CC(CC4CCN(c5ncc(C(=O)N[C@H]6C(C)(C)[C@H](Oc7ccc(C#N)c(Cl)c7)C6(C)C)cn5)CC4)C3)cc1)=NC(C)c1nnc(C)n1-2 (some centres unmarked) [Compound I-508]
2,500 to 1500 nM,Cc1sc2c(c1C)C(c1ccc([C@H]3C[C@@H]3CC3CCCN(c4ncc(C(=O)N[C@H]5C(C)(C)[C@H](Oc6ccc(C#N)c(Cl)c6)C5(C)C)cn4)C3)cc1)=N[C@@H](Cc1ncco1)c1nnc(C)n1-2 (some centres unmarked) [Compound I-493]
3,500 to 1500 nM,Cc1sc2c(c1C)C(c1ccc(C#CC3CC(Cc4ncc(C(=O)N[C@H]5C(C)(C)[C@H](Oc6ccc(C#N)c(Cl)c6)C5(C)C)cn4)C3)cc1)=NC(Cc1ncco1)c1nnc(C)n1-2 (some centres unmarked) [Compound I-559]
4,> 3000 nM,Cc1sc2c(c1C)C(c1ccc(C3CC(CC4CCN(c5ncc(C(=O)N[C@H]6C(C)(C)[C@H](Oc7ccc(C#N)c(Cl)c7)C6(C)C)cn5)CC4)C3)cc1)=NC(C)c1nnc(C)n1-2 (some centres unmarked) [Compound I-510]
5,500 to 1500 nM,Cc1sc2c(c1C)C(c1ccc(N3CC(C4CCC(Cc5ncc(C(=O)N[C@H]6C(C)(C)[C@H](Oc7ccc(C#N)c(Cl)c7)C6(C)C)cn5)CC4)C3)cc1)=N[C@@H](Cc1ncco1)c1nnc(C)n1-2 (some centres unmarked) [Compound I-544]
6,< 500 nM,Cc1sc2c(c1C)C(c1ccc([C@H]3C[C@@H]3CC3CCCN(c4ncc(C(=O)N[C@H]5C(C)(C)[C@H](Oc6ccc(C#N)c(Cl)c6)C5(C)C)cn4)C3)cc1)=NC(Cc1ncco1)c1nnc(C)n1-2 (some centres unmarked) [Compound I-495]
7,> 3000 nM,Cc1sc2c(c1C)C(c1ccc(OCC3CC4(CCCN(c5ncc(C(=O)N[C@H]6C(C)(C)[C@H](Oc7ccc(C#N)c(Cl)c7)C6(C)C)cn5)C4)C3)cc1)=NC1(CC1)c1nnc(C)n1-2 [Compound I-500]
8,> 3000 nM,Cc1sc2c(c1C)C(c1ccc([C@@H]3C[C@H]3C3CC4(CCN(c5cnc(C(=O)N[C@H]6C(C)(C)[C@H](Oc7ccc(C#N)c(Cl)c7)C6(C)C)cn5)CC4)C3)cc1)=N[C@@H](Cc1ncco1)c1nnc(C)n1-2 [Compound I-519]
9,> 3000 nM,Cc1sc2c(c1C)C(c1ccc(C#CC3CC4(CCCN(c5ncc(C(=O)N[C@H]6C(C)(C)[C@H](Oc7ccc(C#N)c(Cl)c7)C6(C)C)cn5)C4)C3)cc1)=NC1(CC1)c1nnc(C)n1-2 [Compound I-487]
10,> 3000 nM,Cc1sc2c(c1C)C(c1ccc([C@H]3C[C@@H]3CC3CCCN(c4ncc(C(=O)N[C@H]5C(C)(C)[C@H](Oc6ccc(C#N)c(Cl)c6)C5(C)C)cn4)C3)cc1)=N[C@@H](Cc1ncco1)c1nnc(C)n1-2 (some centres unmarked) [Compound I-492]
11,> 3000 nM,Cc1sc2c(c1C)C(c1ccc(C3CC3C3CC4(CCN(c5cnc(C(=O)N[C@H]6C(C)(C)[C@H](Oc7ccc(C#N)c(Cl)c7)C6(C)C)cn5)CC4)C3)cc1)=N[C@@H](C)c1nnc(C)n1-2 (some centres unmarked) [Compound I-536]
12,> 3000 nM,Cc1sc2c(c1C)C(c1ccc(C3CC3C3CC4(CCN(c5ncc(C(=O)N[C@H]6C(C)(C)[C@H](Oc7ccc(C#N)c(Cl)c7)C6(C)C)cn5)CC4)C3)cc1)=N[C@@H](C)c1nnc(C)n1-2 (some centres unmarked) [Compound I-556]
13,> 3000 nM,Cc1sc2c(c1C)C(c1ccc(C3CC3C3CC4(CCN(c5cnc(C(=O)N[C@H]6C(C)(C)[C@H](Oc7ccc(C#N)c(Cl)c7)C6(C)C)cn5)CC4)C3)cc1)=NC(Cc1ncco1)c1nnc(C)n1-2 (some centres unmarked) [Compound I-538]
14,> 3000 nM,Cc1sc2c(c1C)C(c1ccc(C#CC3CCC(Cc4ncc(C(=O)N[C@H]5C(C)(C)[C@H](Oc6ccc(C#N)c(Cl)c6)C5(C)C)cn4)CC3)cc1)=N[C@@H](Cc1ncco1)c1nnc(C)n1-2 (some centres unmarked) [Compound I-505]
15,< 500 nM,Cc1sc2c(c1C)C(c1ccc(CC3CC(CC4CCN(c5ncc(C(=O)N[C@H]6C(C)(C)[C@H](Oc7ccc(C#N)c(Cl)c7)C6(C)C)cn5)CC4)C3)cc1)=N[C@@H](C)c1nnc(C)n1-2 (some centres unmarked) [Compound I-513]
16,< 500 nM,Cc1sc2c(c1C)C(c1ccc(CC3CC(C4CCCN(c5ncc(C(=O)N[C@H]6C(C)(C)[C@H](Oc7ccc(C#N)c(Cl)c7)C6(C)C)cn5)C4)C3)cc1)=N[C@@H](C)c1nnc(C)n1-2 (some centres unmarked) [Compound I-489]

# Same assay, conditions: Homo sapiens, T47D, 72 h, 72 hours treatment, CellTiter-Glo 2.0 cell viability
row,GI50,SMILES
1,< 500 nM,Cc1sc2c(c1C)C(c1ccc(CC3CCN(c4ncc(C(=O)N[C@H]5C(C)(C)[C@H](Oc6ccc(C#N)c(Cl)c6)C5(C)C)cn4)CC3)cc1)=N[C@@H](Cc1ncco1)c1nnc(C)n1-2 [Compound I-554]
2,> 3000 nM,Cc1sc2c(c1C)C(c1ccc(N3CC(CC4CCN(c5ccc(C(=O)N[C@H]6C(C)(C)[C@H](Oc7ccc(C#N)c(Cl)c7)C6(C)C)nc5)CC4)C3)cc1)=NC1(CC1)c1nnc(C)n1-2 [Compound I-529]
3,> 3000 nM,Cc1sc2c(c1C)C(c1ccc(N3CC(CC4CN(c5ccc(C(=O)N[C@H]6C(C)(C)[C@H](Oc7ccc(C#N)c(Cl)c7)C6(C)C)nc5)C4)C3)cc1)=NC1(CC1)c1nnc(C)n1-2 [Compound I-531]
4,< 500 nM,Cc1sc2c(c1C)C(c1ccc(OC[C@@H]3CCCN(c4cnc(C(=O)N[C@H]5C(C)(C)[C@H](Oc6ccc(C#N)c(Cl)c6)C5(C)C)cn4)C3)cc1)=N[C@@H](Cc1ncco1)c1nnc(C)n1-2 [Compound I-591]
5,1500 to 3000 nM,Cc1sc2c(c1C)C(c1ccc(CC3CC4(CCN(c5ccc(C(=O)N[C@H]6C(C)(C)[C@H](Oc7ccc(C#N)c(Cl)c7)C6(C)C)nc5)CC4)C3)cc1)=NC1(CC1)c1nnc(C)n1-2 [Compound I-522]
6,< 500 nM,Cc1sc2c(c1C)C(c1ccc(CC3CC4(CCN(c5ccc(C(=O)N[C@H]6C(C)(C)[C@H](Oc7ccc(C#N)c(Cl)c7)C6(C)C)nc5)CC4)C3)cc1)=N[C@@H](Cc1ncco1)c1nnc(C)n1-2 [Compound I-553]
7,< 500 nM,Cc1sc2c(c1C)C(c1ccc(N3CC(CC4CN(c5ncc(C(=O)N[C@H]6C(C)(C)[C@H](Oc7ccc(C#N)c(Cl)c7)C6(C)C)cn5)C4)C3)cc1)=N[C@@H](Cc1ncco1)c1nnc(C)n1-2 [Compound I-562]
8,> 3000 nM,Cc1sc2c(c1C)C(c1ccc(C#CC3CC4(CCCN(c5ncc(C(=O)N[C@H]6C(C)(C)[C@H](Oc7ccc(C#N)c(Cl)c7)C6(C)C)cn5)C4)C3)cc1)=NC1(CC1)c1nnc(C)n1-2 [Compound I-486]
9,500 to 1500 nM,Cc1sc2c(c1C)C(c1ccc(N3CC(C4CCN(c5cnc(C(=O)N[C@H]6C(C)(C)[C@H](Oc7ccc(C#N)c(Cl)c7)C6(C)C)cn5)CC4)C3)cc1)=N[C@@H](C)c1nnc(C)n1-2 [Compound I-490]
10,< 500 nM,Cc1sc2c(c1C)C(c1ccc(OC3CC4(C3)CC3(CCN(c5ncc(C(=O)N(C)[C@H]6C(C)(C)[C@H](Oc7ccc(C#N)c(Cl)c7)C6(C)C)cn5)CC3)C4)cc1)=N[C@@H](Cc1ncco1)c1nnc(C)n1-2 [Compound I-592]
11,> 3000 nM,Cc1sc2c(c1C)C(c1ccc(OCC3CC4(CCCN(c5ncc(C(=O)N[C@H]6C(C)(C)[C@H](Oc7ccc(C#N)c(Cl)c7)C6(C)C)cn5)C4)C3)cc1)=NC1(CC1)c1nnc(C)n1-2 [Compound I-499]
12,> 3000 nM,Cc1sc2c(c1C)C(c1ccc(OC3CC4(C3)CC3(CCN(c5ccc(C(=O)N[C@H]6C(C)(C)[C@H](Oc7ccc(C#N)c(Cl)c7)C6(C)C)nc5)CC3)C4)cc1)=N[C@@H](Cc1ncco1)c1nnc(C)n1-2 [Compound I-546]
13,< 500 nM,Cc1sc2c(c1C)C(c1ccc(CC3CC(C4CCCN(c5ncc(C(=O)N[C@H]6C(C)(C)[C@H](Oc7ccc(C#N)c(Cl)c7)C6(C)C)cn5)C4)C3)cc1)=N[C@@H](C)c1nnc(C)n1-2 (some centres unmarked) [Compound I-488]
14,< 500 nM,Cc1sc2c(c1C)C(c1ccc(-n3cnc(C4CCN(c5ncc(C(=O)N[C@H]6C(C)(C)[C@H](Oc7ccc(C#N)c(Cl)c7)C6(C)C)cn5)CC4)n3)cc1)=N[C@@H](Cc1ncco1)c1nnc(C)n1-2 [Compound I-497]
15,> 3000 nM,Cc1sc2c(c1C)C(c1ccc(OC3(C)CC4(CCN(c5ncc(C(=O)N[C@H]6C(C)(C)[C@H](Oc7ccc(C#N)c(Cl)c7)C6(C)C)cn5)CC4)C3)cc1)=N[C@@H](Cc1ncco1)c1nnc(C)n1-2 [Compound I-542]
16,1500 to 3000 nM,Cc1sc2c(c1C)C(c1ccc(N3CC(C4CCN(c5ccc(C(=O)N[C@H]6C(C)(C)[C@H](Oc7ccc(C#N)c(Cl)c7)C6(C)C)nc5)CC4)C3)cc1)=N[C@@H](C)c1nnc(C)n1-2 [Compound I-552]
17,1500 to 3000 nM,Cc1sc2c(c1C)C(c1ccc(N3CC(CC4CCN(c5ccc(C(=O)N[C@H]6C(C)(C)[C@H](Oc7ccc(C#N)c(Cl)c7)C6(C)C)cn5)CC4)C3)cc1)=NC1(CC1)c1nnc(C)n1-2 [Compound I-523]
18,> 3000 nM,Cc1sc2c(c1C)C(c1ccc(OC3CC4(C3)CC3(CCN(c5ccc(C(=O)N[C@H]6C(C)(C)[C@H](Oc7ccc(C#N)c(Cl)c7)C6(C)C)nc5)CC3)C4)cc1)=NC1(CC1)c1nnc(C)n1-2 [Compound I-530]
19,< 500 nM,Cc1sc2c(c1C)C(c1ccc(N3CC(C4CCN(c5ccc(C(=O)N[C@H]6C(C)(C)[C@H](Oc7ccc(C#N)c(Cl)c7)C6(C)C)nc5)CC4)C3)cc1)=N[C@@H](Cc1ncco1)c1nnc(C)n1-2 [Compound I-564]
